Laboratory results taken from patent US7053052B2, “Therapies involving mutated heat shock transcription factor” (priority 1997, dated 2006).

Columns and labels:
HeLa-CAT cells [1] = assay: Rates of protein and DNA synthesis in HSF1(+)-expressing cells (3H-leucine, 3H-thymidine incorporation); format: cell-based, human; conditions: day 2
Procedure: CAT assays were performed using the chromatographic assay of Gorman, C. M. et al., Mol. Cell. Biol., 2:1044–1051 (1982)). DNA replication was assessed by a standard ^3H-thymidine incorporation assay. In most experiments, including all western blot assays, standardization was based on protein content. All protein determinations were made using the Bradford method. In a few experiments involving sorted cells, standardization was based on cell numbers. All experiments were repeated at least twice, and, in most cases, each data point was derived from assays of 3–5 parallel samples.
Protein synthesis dropped to about 10% of the normal rate during heat shock but, after a 1 hour recovery period, returned to pre-shock level in HSF1(+)-expressing but not control cells. […] Fluorescence-activated cell sorting and analyses of DNA content were performed on a FACStar Plus machine (Becton-Dickinson, San Jose, Calif.) configured as described elsewhere (Parks, D. R. et al., In: The Handbook of Experimental Immunology, 4th Edition. Vol. 29. pp. 1–29, 1986). Excitation wave length was 488 nm, and detection lengths were 650 nm (long pass) for propidium iodide and 520 nm (narrow band) for fluorescence by GFP. Extracts from sorted cells were analyzed by western blot. mutHSF was detected in cells sorted as positive for GFP, but not in cells sorted as negative compare. […]

HeLa-CAT cells [2] = assay: Cell survival after heat shock, count of β-galactosidase-positive cells; format: cell-based, human; conditions: heat shock 48° C./10 minutes; p<0.05
Procedure: To also assess the effect of expression of HSF1(−) on stress-induced cell killing, cultures were transfected with a beta-galactosidase gene or co-transfected with the beta-galactosidase gene and the HSF1(−) construct.
Transfected cultures were subjected to a severe heat shock (48° C./10 minutes; about 75% cell survival) or left untreated, and β-galactosidase-positive cells were counted the following day. Untreated, singly and doubly transfected cultures contained similar number of β-galactosidase-expressing cells. In the heat-shocked cultures, the presence of HSF1(−) increased cell killing by about 60% (p<0.05). Thus, the increase in Hsp levels occurring as a consequence of a stressful event has a significant, immediate protective effect.

| Substance | reduction of DNA replication (3H-thymidine incorporation) compared to control cells (HeLa-CAT cells [1]) | increase in cell killing (HeLa-CAT cells [2]) |
| --- | --- | --- |
| human HSF1d202–316 [HSF1(+)] | 4–5 fold | – |
| human HSF1d453–523 [HSF1(−)] | – | about 60% |
